From patent publication US4091006A, “Esters of 3-hydroxyindone compounds” (priority 1975, dated 1978)

How the values were obtained:
[1] = test system: adults and nymphal stages of the two-spotted mite; assay: Mite Foliage Spray Test; type: in vivo, Tetranychus urticae (Koch); parameters: key: 1: no mortality; 3: an approximately 50% mortality; 5: 100% mortality; settings: 4 days
Text: (§1) The test procedures were as follows:
(§2) Compositions were rated on the basis of percent kill with a rating of 1 indicating no mortality; 3 signifying an approximately 50% mortality and 5 indicating 100% mortality at the indicated dosage.

[2] = test system: egg of the two-spotted mite; assay: Mite Ovicide Test; type: in vivo, Tetranychus urticae (Koch); parameters: key to Mite Ova rating: 1: no mortality; 3: an approximately 50% mortality; 5: 100% mortality; settings: spray on eggs, 4 days
Text: as §1
The plants were allowed to dry thoroughly.
as §2

[3] = test system: Perennial rye grass, crabgrass, red root pigweed, mustard; assay: Preliminary Herbicide Seed Germination Test; settings: each rated 1 (no injury) to 5 (no seedlings emerged)
[4] = rating/maximum 20: 100 ppm only, four species
[5] = rating/maximum 40: 100 and 1000 ppm, four species, 10-12 days
[6] = rating/maximum 15: 100 ppm only, crabgrass omitted
[7] = rating/maximum 30: 100 and 1000 ppm, crabgrass omitted

Row | Compound | Mite Adult rating [1] | Mite Ova rating [2] | Herbicide (total preemergence rating) [3, 4] | Herbicide (total preemergence rating) [3, 5] | Herbicide (total preemergence rating) [3, 6] | Herbicide (total preemergence rating) [3, 7]
1 | CNC(=O)N(C)C(=O)OC1=C(c2c(C)cc(C)cc2C)C(=O)c2ccccc21 [2-(2',4',6'-Trimethylphenyl)-3-(2,4-dimethylallophanoyloxy)indone] | 1 | 5 (100% mortality) | 16/20 | – | – | –
2 | CCCCCCCCCCCCC(=O)OC1=C(c2cc(C)ccc2C)C(=O)c2ccccc21 [2-(2',5'-Dimethylphenyl)-3-(tridecanoyloxy)indone] | 1 | 5 (100% mortality) | 4/20 | – | – | –
3 | Cc1cc(C)c(C2=C(OC(=O)c3ccc(Cl)c(Cl)c3)c3ccccc3C2=O)c(C)c1 [3-(3,4-Dichlorobenzoyloxy)-2-(2',4',6'-trimethylphenyl)indone] | 5 (100% mortality) | 5 (100% mortality) | – | 32/40 | – | –
4 | 3-(Acetoxy)-4(7)-methyl-2-(2',6'-dichlorophenyl)indone | 5 (100% mortality) | 5 (100% mortality) | – | 37/40 | – | –
5 | CCc1ccccc1C1=C(OC(=O)C(C)(C)C)c2ccccc2C1=O [2-(2'-Ethylphenyl)-3-pivaloyloxyindone] | 1 | 1 | 4/20 | – | – | –
6 | Cc1cc(C)c(C2=C(OC(=O)OC3=C(c4c(C)cc(C)cc4C)C(=O)c4ccccc43)c3ccccc3C2=O)c(C)c1 [Bis[2-(2',4',6'-Trimethylphenyl)Indon-3-yl]Carbonate] | 5 (100% mortality) | 5 (100% mortality) | 15/20 | – | – | –
7 | Cc1cc(C)c(C2=C(OC(=O)N(C)C)c3ccccc3C2=O)c(C)c1 [2-(2',4',6'-Trimethylphenyl)-3-(dimethylcarbamoyloxy)indone] | 3 (an approximately 50% mortality) | 5 (100% mortality) | 14/20 | – | – | –
8 | O=C1C(c2c(Cl)cccc2Cl)=C(OC(=O)c2c(Cl)cccc2Cl)c2ccccc21 [3-(2,6-Dichlorobenzoyloxy)-2-(2',6'-dichlorophenyl)indone] | 1 | 1 | – | 8/40 | – | –
9 | Cc1cccc(C(=O)OC2=C(c3c(Cl)cccc3Cl)C(=O)c3ccccc32)c1 [3-(3-Methylbenzoyloxy)-2-(2',6'-dichlorophenyl)indone] | 5 (100% mortality) | 5 (100% mortality) | – | 29/40 | – | –
10 | Cc1cc(C)c(C2=C(OC(=O)Oc3ccc(Cl)cc3)c3ccccc3C2=O)c(C)c1 [2-(2',4',6'-Trimethylphenyl)-3-(4-chlorophenyloxycarbonyloxy)indone] | 5 (100% mortality) | 5 (100% mortality) | 19/20 | – | – | –
11 | Cc1ccc(C(=O)OC2=C(c3c(C)cc(C)cc3C)C(=O)c3ccccc32)c(C)c1 [3-(2,4-Dimethylbenzoyloxy)-2-(2',4',6'-trimethylphenyl)indone] | 1 | 5 (100% mortality) | – | – | 11/15 | –
12 | CC(C)c1ccc(C2=C(OC(=O)C(C)(C)C)c3ccccc3C2=O)cc1 [2-(4'-isopropylphenyl)-3-(pivaloyloxy)indone] | 1 | 1 | 4/20 | – | – | –
13 | CCCCCCCCCCCCCCCC(=O)OC1=C(c2ccccc2C)C(=O)c2ccccc21 [2-(2'-Methylphenyl)-3-(palmitoyloxy)indone] | 3 (an approximately 50% mortality) | 5 (100% mortality) | 4/20 | – | – | –
14 | O=C(OC1=C(c2c(Cl)cccc2Cl)C(=O)c2ccccc21)c1ccc(Cl)cc1 [3-(4-Chlorobenzoyloxy)-2-(2',6'-dichlorophenyl)indone] | 5 (100% mortality) | 5 (100% mortality) | – | – | – | 23/30
15 | CC(C)c1cccc(C(C)C)c1C1=C(OC(=O)C(C)(C)C)c2ccccc2C1=O [2-(2'6'-diisopropyl)phenyl-3-pivaloyloxyindone] | 1 | 1 | – | – | 3/15 | –
16 | Cc1cc(C)c(C(=O)OC2=C(c3c(C)cc(C)cc3C)C(=O)c3ccccc32)c(C)c1 [3-(2,4,6-Trimethylbenzoyloxy)-2-(2',4',6'-trimethylphenyl)indone] | 1 | 1 | – | – | 10/15 | –
17 | O=C1C(c2c(Cl)cccc2Cl)=C(OC(=O)c2c(Cl)ccc(Cl)c2Cl)c2ccccc21 [3-(2,3,6-Trichlorobenzoyloxy)-2-(2',6'-dichlorophenyl)indone] | 5 (100% mortality) | 5 (100% mortality) | – | 20/40 | – | –

Row | Compound | Mite Adult rating [1] | Mite Ova rating [2] | Herbicide (total preemergence rating) [3, 4] | Herbicide (total preemergence rating) [3, 5] | Herbicide (total preemergence rating) [3, 6] | Herbicide (total preemergence rating) [3, 7]
18 | Cc1cc(C)c(C2=C(OC(=O)c3c(Cl)cccc3Cl)c3ccccc3C2=O)c(C)c1 [3-(2,6-Dichlorobenzoyloxy)-2-(2',4',6'-trimethylphenyl)indone] | 1 | 1 | – | 8/40 | – | –
19 | Cc1cc(C)c(C2=C(OC(=O)N3CCOCC3)c3ccccc3C2=O)c(C)c1 [2-(2',4',6'-Trimethylphenyl)-3-(4-(morpholino)carbonyloxy)indone] | 3 (an approximately 50% mortality) | 5 (100% mortality) | 4/20 | – | – | –
20 | CCCCN(C)C(=O)OC1=C(c2c(C)cc(C)cc2C)C(=O)c2ccccc21 [2-(2',4',6'-Trimethylphenyl)-3-(N-butyl-N-methylcarbamoyloxy)indone] | 1 | 1 | 4/20 | – | – | –
21 | CC(C)(C)C(=O)OC1=C(c2ccccc2Br)C(=O)c2ccccc21 [2-(2'-Bromophenyl)-3-(pivaloyloxy)indone] | 5 (100% mortality) | 5 (100% mortality) | – | 14/40 | – | –
22 | Cc1cc(C)c(C2=C(OC(=O)c3cc(Cl)cc(Cl)c3)c3ccccc3C2=O)c(C)c1 [3-(3,5-Dichlorobenzoyloxy)-2-(2',4',6'-trimethylphenyl)indone] | 5 (100% mortality) | 5 (100% mortality) | – | – | – | 23/30
23 | CC(C)(C)C(=O)OC1=C(c2ccccc2C(F)(F)F)C(=O)c2ccccc21 [2-(2'-Trifluoromethylphenyl)-3-pivaloyloxy indone] | 1 | 1 | 4/20 | – | – | –
24 | Cc1cc(C)c(C2=C(OC(=O)NC(C)(C)C)c3ccccc3C2=O)c(C)c1 [2-(2',4',6'-Trimethylphenyl)-3-(N-(t-butyl)carbamoyloxy)indone] | 5 (100% mortality) | 5 (100% mortality) | 15/20 | – | – | –
25 | Cc1ccc(C(=O)OC2=C(c3c(C)cc(C)cc3C)C(=O)c3ccccc32)cc1 [3-(4-Methylbenzoyloxy)-2-(2',4',6'-trimethylphenyl)indone] | 5 (100% mortality) | 5 (100% mortality) | – | – | – | 22/30
26 | Cc1cc(C(C)(C)C)cc(C)c1C1=C(OC(=O)C(C)(C)C)c2ccccc2C1=O [2-(2',6'-Dimethyl-4'-t-butylphenyl)-3-(pivaloyloxy)indone] | 1 | 1 | – | 9/40 | – | –
27 | CCc1cccc(CC)c1C1=C(OC(=O)C(C)(C)C)c2ccccc2C1=O [2-(2',6'-Diethylphenyl)-3-(pivaloyloxy)indone] | 5 (100% mortality) | 5 (100% mortality) | – | – | 12/15 | –
28 | CCCCCCCCOC(=O)OC1=C(c2c(C)cc(C)cc2C)C(=O)c2ccccc21 [2-(2',4',6'-Trimethylphenyl)-3-(octyloxycarbonyloxy)indone] | 5 (100% mortality) | 5 (100% mortality) | 16/20 | – | – | –
29 | CCCCC(=O)OC1=C(c2c(C)cc(C)cc2C)C(=O)c2ccccc21 [2-(2',4',6'-Trimethylphenyl)-3-(pentanoyloxy)indone] | 5 (100% mortality) | 5 (100% mortality) | – | – | 15/15 | –
30 | O=C(OC1=C(c2c(Cl)cccc2Cl)C(=O)c2ccccc21)c1cc(Cl)cc(Cl)c1 [3-(3,5-Dichlorobenzoyloxy)-2-(2',6'-dichlorophenyl)indone] | 5 (100% mortality) | 5 (100% mortality) | – | – | – | 24/30
31 | CCCCC(CC)C(=O)OC1=C(c2ccccc2OC)C(=O)c2ccccc21 (stereo not drawn) [3-(2-Ethylhexanoyloxy)-2-(2'-methoxyphenyl-indone] | 1 | 1 | 4/20 | – | – | –
32 | COc1cccc(C(=O)OC2=C(c3c(Cl)cccc3Cl)C(=O)c3ccccc32)c1 [3-(3-Methoxybenzoyloxy)-2-(2',6'-dichlorophenyl)indone] | 5 (100% mortality) | 5 (100% mortality) | – | – | – | 23/30
33 | CCCCCCCCCCCCCCCCCCOC(=O)OC1=C(c2c(C)cc(C)cc2C)C(=O)c2ccccc21 [2-(2',4',6'-Trimethylphenyl)-3-(octadecyloxycarbonyloxy)indone] | 5 (100% mortality) | 5 (100% mortality) | – | – | 13/15 | –
